The values below are quoted from earlier work in publication PMC4210863 (Bioorganic & medicinal chemistry, 2010).

Broadly, the Km is the concentration of substrate that gives half-maximal velocity.

The target of the series is T1, O-GlcNAcase (OGA) (Homo sapiens, UniProt O60502).
T1 sequence (O60502 1-916): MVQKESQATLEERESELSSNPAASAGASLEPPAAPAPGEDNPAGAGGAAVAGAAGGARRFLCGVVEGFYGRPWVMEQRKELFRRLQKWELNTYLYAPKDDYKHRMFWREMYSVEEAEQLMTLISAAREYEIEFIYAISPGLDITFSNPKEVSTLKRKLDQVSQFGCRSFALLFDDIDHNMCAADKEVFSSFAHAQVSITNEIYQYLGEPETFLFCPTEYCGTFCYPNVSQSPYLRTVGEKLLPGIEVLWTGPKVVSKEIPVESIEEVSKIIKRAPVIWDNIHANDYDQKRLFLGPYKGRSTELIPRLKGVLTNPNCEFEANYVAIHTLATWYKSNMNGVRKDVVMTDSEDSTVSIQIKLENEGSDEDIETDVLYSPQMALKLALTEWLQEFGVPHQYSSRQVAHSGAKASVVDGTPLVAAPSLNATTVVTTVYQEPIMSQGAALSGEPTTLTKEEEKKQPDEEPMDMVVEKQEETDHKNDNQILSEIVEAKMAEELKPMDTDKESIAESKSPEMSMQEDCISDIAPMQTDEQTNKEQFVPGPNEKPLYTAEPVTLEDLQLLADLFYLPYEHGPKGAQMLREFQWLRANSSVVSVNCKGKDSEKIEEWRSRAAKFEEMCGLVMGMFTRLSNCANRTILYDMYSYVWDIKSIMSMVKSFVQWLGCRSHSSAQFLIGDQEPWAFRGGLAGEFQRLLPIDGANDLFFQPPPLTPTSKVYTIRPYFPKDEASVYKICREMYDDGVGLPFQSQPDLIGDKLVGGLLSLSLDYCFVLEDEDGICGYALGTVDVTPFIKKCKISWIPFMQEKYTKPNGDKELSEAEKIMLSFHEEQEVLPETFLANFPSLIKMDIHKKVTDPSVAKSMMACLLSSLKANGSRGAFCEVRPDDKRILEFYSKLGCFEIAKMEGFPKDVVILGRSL
As to the kind of experiment: fluorogenic substrate hydrolysis by OGA. Format: biochemical.

Each structure is given as a SMILES string.

For `CC(=O)N[C@H]1[C@H](Oc2ccc3c(c2)Oc2cc(O[C@@H]4O[C@H](CO)[C@@H](O)[C@H](O)[C@H]4NC(C)=O)ccc2C32OC(=O)c3ccccc32)O[C@H](CO)[C@@H](O)[C@@H]1O` [compound 3, FDGlcNAc], the Km is 85 µM.
